The test concerns the target human 11b-hsd-1 (Homo sapiens, UniProt P28845). The test can be described thus: Inhibition constant Ki of human 11b-hsd-1 (3H-cortisone to 3H-cortisol conversion, HPLC). Type of test: biochemical. The note with it: for Ki: apparent Ki, read-out: Ki app.

Read-outs that look alike come from different tables or passages of the source.

In general, inhibition refers to the change of the read-out against control, counted positive when it falls.

Chain of human 11b-hsd-1 (P28845 whole entry): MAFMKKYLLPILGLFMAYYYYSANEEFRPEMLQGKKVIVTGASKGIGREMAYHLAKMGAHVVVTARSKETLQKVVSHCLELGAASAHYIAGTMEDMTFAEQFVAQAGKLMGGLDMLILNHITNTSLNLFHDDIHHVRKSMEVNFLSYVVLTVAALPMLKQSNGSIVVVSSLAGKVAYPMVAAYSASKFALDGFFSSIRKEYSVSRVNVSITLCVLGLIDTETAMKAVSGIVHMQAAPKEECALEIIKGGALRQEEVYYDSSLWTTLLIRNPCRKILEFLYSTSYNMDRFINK
Method: In each well, varying amounts of compounds are incubated with a fixed amount of 11b-hsd-1 (4 nM) and NADPH (500 μM) for 30 to 40 min at room temperature in the assay buffer. The enzyme concentration was determined by titration using reversible tight-binding inhibitors. […] The area of 3H-cortisol is calculated and plotted versus time to determine a linear velocity. […] Where vi, and vo are the rates of cortisol formation in the presence and in the absence of inhibitor, respectively, I is the inhibitor concentration and E is the 11 b-hsd-1 concentration in the assay buffer. […] NADPH, Glucose-6-Phosphate (G6P), and Glucose-6-Phosphate dehydrogenase was purchased from Sigma.

As for `CC(C)CN1CCOC[C@@H]1C(=O)N[C@@H]1CCc2ccccc21` [Example 308], the Ki stood at 5.71 nM. Where the note is “0.1 μM compound”, at 0.1 µM the inhibition was 97.7%.
As to `CCCN1CCC[C@@H]1C(=O)N[C@H]1C[C@@H]2CC[C@H]1C2` [Example 90], under “compound at 0.1 μM”, the inhibition at 0.1 µM was 100%.
Turning to `O=C(NCc1ccc(F)cc1)[C@H]1CCCN1CC1CCCC1` [Example 228], the Ki stood at 54 nM. Also, the inhibition at 0.1 µM (0.1 μM compound) turned out to be 89.3%.
For `CC(C)CN1CCOC[C@@H]1C(=O)N[C@H](C)c1ccc(Cl)cc1` [Example 317], the Ki is 8.72 nM. This compound also returned an inhibition at 0.1 µM (0.1 μM compound) of 91.1%.
Consider `COc1ccccc1CNC(=O)[C@H]1CCCN1Cc1ccccc1` [Example 245], for which the Ki turned out to be 17 nM. For the same compound, where the note is “0.1 μM compound”, the inhibition at 0.1 µM worked out at 84.6%.
For the compound `O=C(NCc1ccc(F)cc1F)[C@H]1CCCN1Cc1ccccc1` [Example 236], the Ki came to 66 nM. Where the note is “0.1 μM compound”, the inhibition at 0.1 µM came to 76.8%.
On the same counts, the results for `O=C(NCc1c(F)cccc1F)[C@H]1COCCN1Cc1ccccc1` [Example 327] are 110 nM and 68.9%.
In the case of `CC(C)CN1CCC[C@@H]1C(=O)NCc1ccc(F)cc1` [Example 222], the Ki was found to be 6.9 nM. The compound further gave an inhibition at 0.1 µM (0.1 μM compound) of 100%.
`CC(=O)NCCN1CCC[C@@H]1C(=O)NC1C2CC3CC(C2)CC1C3` (stereo partly drawn) [Example 129, 1-(2-Acetylamino-ethyl)pyrrolidine-2-carboxylic acid adamantan-2-ylamide] showed an inhibition at 0.1 µM (compound at 0.1 μM) of 72%.
For the compound `NC(=O)CN1CCC[C@@H]1C(=O)NC1C2CC3CC(C2)CC1C3` (stereo partly drawn) [Example 19], the Ki (human 11b-hsd-1) came to 17 nM. Moreover, where the note is “compound at 0.1 μM”, testing at 0.1 µM gave an inhibition of 86%.
`N#Cc1ccc(CN2CCC[C@@H]2C(=O)N[C@@H]2CCCc3ccccc32)cc1` [Example 297]: the Ki worked out at 3.7 nM. This compound displayed an inhibition at 0.1 µM (0.1 μM compound) of 100%.
For the compound `O=C(NC12CC3CC(CC(C3)C1)C2)C1COCCN1CC1CCOCC1` (stereo not drawn) [Example 184], for the setting “human 11b-hsd-1”, the Ki was determined as 3.2 nM. For the same compound, where the note is “compound at 0.1 μM”, the inhibition at 0.1 µM turned out to be 100%.
Turning to `O=C(NC1C2CC3CC(C2)CC1C3)[C@@H]1C[C@H](Oc2cccc(F)c2)CN1` (stereo partly drawn) [Example 319], the Ki worked out at 1.7 nM. The same compound yielded an inhibition at 0.1 µM (0.1 μM compound) of 100%.
On the same counts, the results for `O=C(NC1C2CC3CC(C2)CC1C3)[C@H]1NCC[C@@H]1Cc1ccccc1` (stereo partly drawn) [Example 369] are 6.6 nM and 100%.
For `Cc1ccc(O[C@@H]2CN[C@H](C(=O)NC3C4CC5CC(C4)CC3C5)C2)cn1` (stereo partly drawn) [Example 343], the Ki is 6.3 nM. Moreover, at 0.1 µM the inhibition (0.1 μM compound) was 98.6%.
For `CC(C)CN1CCC[C@@H]1C(=O)NC1Cc2ccccc2C1` [Example 289], the Ki is 1.2 nM. In addition, at 0.1 µM the inhibition (0.1 μM compound) was 100%.
As to `O=C(NC1C2CC3CC(C2)CC1C3)[C@H]1COCCN1CCN1CCCC1` (stereo partly drawn) [Example 70], the inhibition at 0.1 µM (compound at 0.1 μM) came out at 74%.
On to `CN(C)CCCN1CCC[C@@H]1C(=O)NC1C2CC3CC(C2)CC1C3` (stereo partly drawn) [Example 108], for which the Ki (human 11b-hsd-1) is 9 nM. In addition, the inhibition at 0.1 µM (compound at 0.1 μM) is 100%.
On the same counts, the results for `CC(C)CN1CCOC[C@@H]1C(=O)N(C)Cc1ccc(F)cc1` [Example 37] are 39.3 nM and 100%.
Regarding `CC(C)(C)OC(=O)N1CCC[C@H]1CN1CCC[C@@H]1C(=O)NC1C2CC3CC(C2)CC1C3` (stereo partly drawn) [Example 112], the inhibition at 0.1 µM (compound at 0.1 μM) came to 81%.
As to `COc1ccccc1CNC(=O)[C@H]1CCCN1Cc1cccc(Cl)c1` [Example 266], the Ki amounted to 57 nM. This compound also had an inhibition at 0.1 µM (0.1 μM compound) of 77.9%.
Consider `C[C@@H](CN1CCC[C@@H]1C(=O)NC1C2CC3CC(C2)CC1C3)NC(=O)OC(C)(C)C` (stereo partly drawn) [Example 154], for which, for the setting “compound at 0.1 μM”, the inhibition at 0.1 µM is 96%.
Compound `CN1CCC(CN2C[C@H](O)C[C@@H]2C(=O)NC2CCCCC2)CC1` [Example 42, (4R)-N-cyclohexyl-4-hydroxy-1-[(1-methylpiperidin-4-yl)methyl]-D prolinamide] returned an inhibition at 0.1 µM (compound at 0.1 μM) of 0%.
With `CN(Cc1ccccc1)C(=O)[C@H]1COCCN1Cc1ccccc1` [Example 272], the Ki turned out to be 1 nM. The inhibition at 0.1 µM (0.1 μM compound) amounted to 71.7%.
On the same counts, the results for `O=C(NC1C2CC3CC(C2)CC1C3)[C@H]1NCC[C@@H]1Cc1ccc(F)cc1` (stereo partly drawn) [Example 368] are 6.8 nM and 96.4%.
On the same counts, the results for `Cc1cccc(CNC(=O)[C@H]2CCCN2CC(C)C)c1` [Example 258] are 24 nM and 90.1%.
As to `CC(C)CN1CC[C@H](O)[C@H]1C(=O)NC12CC3CC(CC(C3)C1)C2` [Example 211], the Ki was found to be 32 nM. For the same compound, under “0.1 μM compound”, the inhibition at 0.1 µM is 80.2%.
For `CC(C)CN1CCOC[C@@H]1C(=O)NC1Cc2ccccc2C1` [Example 307] the same measures were 12.8 nM and 100%.
On the same counts, the results for `CC(C)CN1CCC[C@@H]1C(=O)NCc1cccc(Cl)c1` [Example 223] are 26 nM and 86.3%.
`O=C(NC1CCCCC1)[C@H]1CCCN1CC1CCCC1` [Example 50]: under “human 11b-hsd-1”, the Ki stood at 1.3 nM. Besides, testing at 0.1 µM (compound at 0.1 μM) gave an inhibition of 100%.
As for `CC(C)CN1CCC[C@@H]1C(=O)N[C@H]1c2ccccc2C[C@H]1O` [Example 288], the Ki turned out to be 5.51 nM. The compound also gave an inhibition at 0.1 µM (0.1 μM compound) of 99.1%.
On the same counts, the results for `COc1ccccc1CNC(=O)[C@H]1CCCN1Cc1ccc(Cl)cc1` [Example 267] are 12 nM and 100%.
`O=C(NCc1ccccc1)[C@@H]1CCCN1CC1CCCCC1` [Example 5, N-benzyl-1-(cyclohexylmethyl)-L-prolinamide]: where the note is “compound at 0.1 μM”, the inhibition at 0.1 µM was 29%.
Turning to `CC(C)CN1CCC[C@@H]1C(=O)NCc1ccccc1Cl` [Example 257], the Ki came out at 2.1 nM. This compound also registered an inhibition at 0.1 µM (0.1 μM compound) of 100%.
On the same counts, the results for `CN(C(=O)[C@H]1COCCN1Cc1ccccc1)C1CCCCC1` [Example 303] are 4.4 nM and 50%.
`C[C@H](O)CN1CCC[C@@H]1C(=O)NC1C2CC3CC(C2)CC1C3` (stereo partly drawn) [Example 117] gave an inhibition at 0.1 µM (compound at 0.1 μM) of 100%.
Take `O=C(NCc1ccc(Cl)cc1)[C@H]1CCCN1Cc1ccccc1` [Example 213]: the Ki came out at 120 nM. For the same compound, under “0.1 μM compound”, 0.1 µM produced 78% inhibition.
As to `Cc1ccccc1CNC(=O)[C@H]1CCCN1CC(C)C` [Example 256], the Ki is 7 nM. Besides, the inhibition at 0.1 µM (0.1 μM compound) came out at 100%.
`CN(C(=O)[C@H]1COCCN1CC1CCOCC1)C1CCCCC1` [Example 49]: testing at 0.1 µM (compound at 0.1 μM) gave an inhibition of 64%.
For `Cc1ccccc1CNC(=O)[C@H]1CCCN1Cc1ccc(Cl)cc1` [Example 268], the Ki was determined as 10 nM. In addition, the inhibition at 0.1 µM (0.1 μM compound) stood at 100%.
On the same counts, the results for `COc1ccccc1CNC(=O)[C@H]1CCCN1Cc1ccc(C#N)cc1` [Example 251] are 47 nM and 83.5%.
Consider `CC(C)(C)OC(=O)N1CCCC(C(=O)Nc2ccc3ncccc3n2)C1` (stereo not drawn) [Example 164], for which the inhibition at 0.1 µM (compound at 0.1 μM) was 11%.
On to `O=C(NCc1ccc(F)cc1)[C@H]1COCCN1Cc1ccccc1` [Example 274], for which the Ki stood at 2.6 nM. Besides, where the note is “0.1 μM compound”, the inhibition at 0.1 µM was 78.4%.
`CCN1CCC[C@@H]1C(=O)NC1CCCCC1` [Example 84] yielded an inhibition at 0.1 µM (compound at 0.1 μM) of 62%.
Consider `CN(C(=O)C1COCCN1Cc1ccccc1)C1CCCCC1` (stereo not drawn) [Example 177], for which the Ki (human 11b-hsd-1) worked out at 18 nM. This compound gave an inhibition at 0.1 µM (compound at 0.1 μM) of 92.2%.
As to `O=C(NCc1ccccc1)C1COCCN1CC1CCCCC1` (stereo not drawn) [Example 322], the Ki turned out to be 45 nM. The compound also yielded an inhibition at 0.1 µM (0.1 μM compound) of 62.5%.
`CC(C)(C)OC(=O)N1CCC(CN2CCC[C@@H]2C(=O)NC2C3CC4CC(C3)CC2C4)C1` (stereo partly drawn) [Example 114] gave an inhibition at 0.1 µM (compound at 0.1 μM) of 100%.
For the compound `Cc1cccc(O[C@@H]2CN[C@H](C(=O)NC3C4CC5CC(C4)CC3C5)C2)c1` (stereo partly drawn) [Example 348], the Ki is 2.7 nM. In addition, under “0.1 μM compound”, the inhibition at 0.1 µM is 100%.
`O=C(N[C@H]1c2ccccc2C[C@H]1O)[C@H]1CCCN1CC1CCCC1` [Example 293]: the Ki was 22.4 nM. Also, the inhibition at 0.1 µM (0.1 μM compound) amounted to 92.6%.
On the same counts, the results for `O=C(NC1C2CC3CC(C2)CC1C3)[C@@H]1NCC[C@H]1c1ccccc1` (stereo partly drawn) [Example 340] are 5.2 nM and 100%.
For `CC(C)CN1CCC[C@@H]1C(=O)N[C@H](C)c1ccccc1` [Example 287] the same measures were 3.39 nM and 98.7%.
For `O=C(NC1C2CC3CC(C2)CC1C3)[C@H]1CCCN1CC1CCOC1` (stereo partly drawn) [Example 115], the inhibition at 0.1 µM (compound at 0.1 μM) amounted to 100%.
Consider `O=C(NC1CCCCC1)[C@@H]1C[C@H](Oc2ccc(Cl)c(F)c2)CN1` [Example 373], for which, for the setting “0.1 μM compound”, 0.1 µM produced 91.8% inhibition.
For the compound `CCOc1cccc(O[C@@H]2CN[C@H](C(=O)NC3C4CC5CC(C4)CC3C5)C2)c1` (stereo partly drawn) [Example 358], the Ki turned out to be 4.5 nM. The inhibition at 0.1 µM (0.1 μM compound) was determined as 100%.
Turning to `O=C(NC1C2CC3CC(C2)CC1C3)[C@@H]1C[C@H](Oc2cccc(C(F)(F)F)c2)CN1` (stereo partly drawn) [Example 357], the Ki turned out to be 2.1 nM. For the setting “0.1 μM compound”, this compound gave an inhibition at 0.1 µM of 100%.
On the same counts, the results for `O=C(N[C@@H]1CCCc2ccccc21)[C@H]1CCCN1Cc1ccccc1` [Example 295] are 4.5 nM and 100%.
For `CCC1CCCCN1C(=O)[C@H]1CSCN1CC(C)C` (stereo partly drawn) [Example 200] the same measures were 36 nM and 91.6%.
Take `CC(C)CN1CCOC[C@@H]1C(=O)N[C@@H]1CCCc2ccccc21` [Example 316]: the Ki worked out at 10.9 nM. The compound also came in with an inhibition at 0.1 µM (0.1 μM compound) of 91%.
`CC(C)CN1[C@H]2CC[C@H](C2)[C@@H]1C(=O)NC12CC3CC(CC(C3)C1)C2` (relative stereo) [Example 210]: the Ki was found to be 1 nM. This compound also came in with an inhibition at 0.1 µM (0.1 μM compound) of 100%.
Turning to `CC(C)CN1CCOC[C@@H]1C(=O)NC1C2CC3CC(C2)CC1C3` (stereo partly drawn) [Example 64], the Ki (human 11b-hsd-1) was 1.3 nM. The compound further gave an inhibition at 0.1 µM (compound at 0.1 μM) of 100%.
`O=C(NCc1c(F)cccc1F)[C@H]1CCCN1CC1CCCC1` [Example 241]: the Ki amounted to 32 nM. Moreover, the inhibition at 0.1 µM (0.1 μM compound) was found to be 81.4%.

The record behind these values is patent publication US20050261290A1, “Novel compounds of proline and morpholine derivatives” (priority 2004, published 2005).
